Results reported in patent publication US6869971B1, “UCS1025 derivatives” (Kyowa Hakko Kogyo Co., Ltd., priority 1999, dated 2005).
Values after ≈ are worked out from the molar mass of the structure shown.

What was measured:
Type in all cases: cell-based
[1] = tested on: Enteroccccus hirae ATCC 10541; assay: Antibacterial activity (MIC), agar dilution method; conditions: read-out: minimum inhibitory concentration (MIC), ER
Protocol: (§1) Antibacterial activities (minimum inhibitory concentration (MIC: mg/ml)) of Compounds (I) on various bacteria are shown in Table 2. The antibacterial activity was measured by an agar dilution method using a medium comprising 3 g/L Bacto-Tryptone (manufactured by Difco), 3 g/L meat extract, 1 g/L yeast extract, 1 g/L glucose and 16 g/L agar.

[2] = tested on: Bacillus subtilis ATCC 10707; assay: Antibacterial activity (MIC), agar dilution method; conditions: ATCC10707, read-out: minimum inhibitory concentration (MIC), BS
Protocol: as §1

[3] = tested on: human renal carcinoma cell line ACHN; assay: Growth inhibition action on human renal carcinoma cell line ACHN; conditions: ACHN cells, 72 hours culture with compound, Cell proliferation kit II, read-out: IC50 (concentration inhibiting 50% of the cell growth)
Protocol: Cells of human renal carcinoma cell line ACHN adjusted to a density of 3×10^4 cells/ml with RPMI (Roswell Park Memorial Institute) medium comprising 10% fetal bovine serum and 2 mmol/l glutamine were dispensed in a volume of 50 μl into each well of a 96 well microtiter plate and cultured at 37° C. for 24 hours in a carbon dioxide incubator. Each of the test compounds serially diluted with the above medium was added to each well in a volume of 50 μl, following by culturing at 37° C. for 72 hours in a carbon dioxide incubator. After discarding the culture supernatant, each well was washed twice with 0.1 ml of phosphate buffered saline (PBS), and then 0.1 ml of the above medium was again added to each well. Cell proliferation kit II (Boehringer Mannheim) was used for the measurement of the number of cells in each well. After addition of a color-producing reagent and subsequent incubation at 37° C. for 3 hours in a carbon dioxide incubator, absorbance at 490 nm and 655 nm was measured using a microplate reader, and a value (differential absorbance) was calculated by subtracting the absorbance at 655 nm from the absorbance at 490 nm in each well. By comparing the differential absorbance obtained from untreated cells and that obtained from cells treated with a predetermined concentration of each test compound, the concentration of the test compound capable of inhibiting 50% of the cell growth was calculated and expressed as IC50.

Row | SMILES | MIC [1] [µg/mL] | MIC [2] [µg/mL] | IC50 [3] [µM]
1 | CCN(CC)C(=O)[C@@H]1CCN2C(=O)C3(C(=O)C4[C@H]5CCCC[C@@H]5C=C[C@@H]4C)O[C@@H]3[C@]12O (stereo partly shown) [Compound 38] | 8100 (≈ 18.8 mM) | 16000 (≈ 37.2 mM) | –
2 | COC(=O)[C@@H]1CCN2C(=O)C(C(=O)C3[C@H]4CCCC[C@@H]4C=C[C@@H]3C)=C[C@]12O (stereo partly shown) [Compound 1] | 520 (≈ 1.39 mM) | 520 (≈ 1.39 mM) | 4.4
3 | C[C@H]1C=C[C@H]2CCCC[C@@H]2C1C(=O)C1Cc2cccn2C1=O (stereo partly shown) [Compound 16] | – | – | 64
4 | C=CCOC(=O)[C@@H]1CCN2C(=O)C3(C(=O)C4[C@H]5CCCC[C@@H]5C=C[C@@H]4C)O[C@@H]3[C@]12O (stereo partly shown) [Compound 36] | 48000 (≈ 116 mM) | 48000 (≈ 116 mM) | –
5 | CCS[C@@H]1[C@H](C(=O)C2[C@H]3CCCC[C@@H]3C=C[C@@H]2C)C(=O)N2CC[C@@H](C(=O)N(CC)CC)[C@@]12O (stereo partly shown) [Compound 12] | – | – | 5.7
6 | CCCN(CCC)C(=O)[C@@H]1CCN2C(=O)C(C(=O)C3[C@H]4CCCC[C@@H]4C=C[C@@H]3C)=C[C@]12O (stereo partly shown) [Compound 7] | 5000 (≈ 11.3 mM) | 1300 (≈ 2.94 mM) | –
7 | CCCCN(CCCC)C(=O)[C@@H]1CCN2C(=O)C(C(=O)C3[C@H]4CCCC[C@@H]4C=C[C@@H]3C)=C[C@]12O (stereo partly shown) [Compound 8] | 1500 (≈ 3.19 mM) | 380 (≈ 0.807 mM) | 2.7
8 | C[C@H]1C=C[C@H]2CCCC[C@@H]2C1C(=O)[C@@]1(Br)C(=O)N2CC[C@H]3C(=O)O[C@@H]1[C@]32O (stereo partly shown) [Compound 32] | 13000 (≈ 29.7 mM) | 13000 (≈ 29.7 mM) | –
9 | CCN(CC)C(=O)[C@@H]1CCN2C(=O)C(C(=O)C3[C@H]4CCCC[C@@H]4C=C[C@@H]3C)=C[C@]12O (stereo partly shown) [Compound 6] | 3600 (≈ 8.68 mM) | 1800 (≈ 4.34 mM) | 5.6
